ChEMBL document CHEMBL5724806, “Unraveling interindividual differences and functional consequences of gut microbial metabolism of immunosuppressants” (2024)

Assays:
Assay type in all cases: ADME
[1] = The drug is tested on the gut metagenome community of A-02 with ENA study accession number: PRJEB31790 for biotransformation under anaerobic condition. The drug concentrations were measured over 7 timepoints collected between 0 and 12 hours of incubation by liquid-chromatography-coupled mass spectrometry (LC–MS); parameters: dose 5 uM, timepoint 0, 0.75, 1.5, 3, 6, 9, 12 hours; conditions: 5 µM
[2] = The drug is tested on the gut metagenome community of T-05 with ENA study accession number: PRJEB31790 for biotransformation under anaerobic condition. The drug concentrations were measured over 7 timepoints collected between 0 and 12 hours of incubation by liquid-chromatography-coupled mass spectrometry (LC–MS); parameters: dose 5 uM, timepoint 0, 0.75, 1.5, 3, 6, 9, 12 hours; conditions: 5 µM
[3] = The drug is tested on Parabacteroides distasonis strain: DSM20701 for biotransformation under anaerobic condition. The drug concentrations were measured over 6 timepoints collected between 0 and 12 hours of incubation by liquid-chromatography-coupled mass spectrometry (LC–MS); parameters: dose 5 uM, timepoint 0, 1.5, 3, 6, 9, 12 hours; conditions: 5 µM
[4] = The drug is tested on Lactobacillus gasseri strain: DSM20243 for biotransformation under anaerobic condition. The drug concentrations were measured over 6 timepoints collected between 0 and 12 hours of incubation by liquid-chromatography-coupled mass spectrometry (LC–MS); parameters: dose 5 uM, timepoint 0, 1.5, 3, 6, 9, 12 hours; conditions: 5 µM
[5] = The drug is tested on the gut metagenome community of A-07 with ENA study accession number: PRJEB31790 for biotransformation under anaerobic condition. The drug concentrations were measured over 7 timepoints collected between 0 and 12 hours of incubation by liquid-chromatography-coupled mass spectrometry (LC–MS); parameters: dose 5 uM, timepoint 0, 0.75, 1.5, 3, 6, 9, 12 hours; conditions: 5 µM
[6] = The drug is tested on Bifidobacterium longum strain: DSM20088 for biotransformation under microaerobic condition. The drug concentrations were measured over 6 timepoints collected between 0 and 12 hours of incubation by liquid-chromatography-coupled mass spectrometry (LC–MS); parameters: dose 5 uM, timepoint 0, 1.5, 3, 6, 9, 12 hours; conditions: 5 µM
[7] = The drug is tested on Blautia hansenii strain: DSM20583 for biotransformation under anaerobic condition. The drug concentrations were measured over 6 timepoints collected between 0 and 12 hours of incubation by liquid-chromatography-coupled mass spectrometry (LC–MS); parameters: dose 5 uM, timepoint 0, 1.5, 3, 6, 9, 12 hours; conditions: 5 µM
[8] = The drug is tested on Bacteroides stercoris strain: HM 1036 for biotransformation under anaerobic condition. The drug concentrations were measured over 6 timepoints collected between 0 and 12 hours of incubation by liquid-chromatography-coupled mass spectrometry (LC–MS); parameters: dose 5 uM, timepoint 0, 1.5, 3, 6, 9, 12 hours; conditions: 5 µM
[9] = The drug is tested on Lactobacillus paracasei strain: ATCC27092 for biotransformation under microaerobic condition. The drug concentrations were measured over 6 timepoints collected between 0 and 12 hours of incubation by liquid-chromatography-coupled mass spectrometry (LC–MS); parameters: dose 5 uM, timepoint 0, 1.5, 3, 6, 9, 12 hours; conditions: lacticaseibacillus paracasei, 5 µM
[10] = The drug is tested on the gut metagenome community of P-04 with ENA study accession number: PRJEB31790 for biotransformation under microaerobic condition. The drug concentrations were measured over 7 timepoints collected between 0 and 12 hours of incubation by liquid-chromatography-coupled mass spectrometry (LC–MS); parameters: dose 5 uM, timepoint 0, 0.75, 1.5, 3, 6, 9, 12 hours; conditions: 5 µM
[11] = The drug is tested on Bacteroides caccae strain: DSM19024 for biotransformation under anaerobic condition. The drug concentrations were measured over 6 timepoints collected between 0 and 12 hours of incubation by liquid-chromatography-coupled mass spectrometry (LC–MS); parameters: dose 5 uM, timepoint 0, 1.5, 3, 6, 9, 12 hours; conditions: 5 µM
[12] = The drug is tested on the gut metagenome community of P-03 with ENA study accession number: PRJEB31790 for biotransformation under microaerobic condition. The drug concentrations were measured over 7 timepoints collected between 0 and 12 hours of incubation by liquid-chromatography-coupled mass spectrometry (LC–MS); parameters: dose 5 uM, timepoint 0, 0.75, 1.5, 3, 6, 9, 12 hours; conditions: 5 µM
[13] = The drug is tested on Escherichia coli strain: DSM27469 for biotransformation under anaerobic condition. The drug concentrations were measured over 6 timepoints collected between 0 and 12 hours of incubation by liquid-chromatography-coupled mass spectrometry (LC–MS); parameters: dose 5 uM, timepoint 0, 1.5, 3, 6, 9, 12 hours; conditions: 5 µM
[14] = The drug is tested on Clostridium ramosum strain: DSM1402 for biotransformation under anaerobic condition. The drug concentrations were measured over 6 timepoints collected between 0 and 12 hours of incubation by liquid-chromatography-coupled mass spectrometry (LC–MS); parameters: dose 5 uM, timepoint 0, 1.5, 3, 6, 9, 12 hours; conditions: thomasclavelia ramosa, 5 µM
[15] = The drug is tested on Clostridium bolteae strain: DSM15670 for biotransformation under anaerobic condition. The drug concentrations were measured over 6 timepoints collected between 0 and 12 hours of incubation by liquid-chromatography-coupled mass spectrometry (LC–MS); parameters: dose 5 uM, timepoint 0, 1.5, 3, 6, 9, 12 hours; conditions: enterocloster bolteae, 5 µM
[16] = The drug is tested on Streptococcus anginosus strain: DSM20563 for biotransformation under microaerobic condition. The drug concentrations were measured over 6 timepoints collected between 0 and 12 hours of incubation by liquid-chromatography-coupled mass spectrometry (LC–MS); parameters: dose 5 uM, timepoint 0, 1.5, 3, 6, 9, 12 hours; conditions: 5 µM
[17] = The drug is tested on Clostridium scindens strain: DSM5676 for biotransformation under anaerobic condition. The drug concentrations were measured over 6 timepoints collected between 0 and 12 hours of incubation by liquid-chromatography-coupled mass spectrometry (LC–MS); parameters: dose 5 uM, timepoint 0, 1.5, 3, 6, 9, 12 hours; conditions: 5 µM
[18] = The drug is tested on Dorea formicigenerans strain: DSM3992 for biotransformation under anaerobic condition. The drug concentrations were measured over 6 timepoints collected between 0 and 12 hours of incubation by liquid-chromatography-coupled mass spectrometry (LC–MS); parameters: dose 5 uM, timepoint 0, 1.5, 3, 6, 9, 12 hours; conditions: 5 µM
[19] = The drug is tested on Streptococcus mitis strain: DSM12643 for biotransformation under microaerobic condition. The drug concentrations were measured over 6 timepoints collected between 0 and 12 hours of incubation by liquid-chromatography-coupled mass spectrometry (LC–MS); parameters: dose 5 uM, timepoint 0, 1.5, 3, 6, 9, 12 hours; conditions: 5 µM
[20] = The drug is tested on Bacteroides thetaiotaomicron strain: DSM2079 for biotransformation under anaerobic condition. The drug concentrations were measured over 6 timepoints collected between 0 and 12 hours of incubation by liquid-chromatography-coupled mass spectrometry (LC–MS); parameters: dose 5 uM, timepoint 0, 1.5, 3, 6, 9, 12 hours; conditions: 5 µM
[21] = The drug is tested on Gemella haemolysans strain: DSM107751 for biotransformation under anaerobic condition. The drug concentrations were measured over 6 timepoints collected between 0 and 12 hours of incubation by liquid-chromatography-coupled mass spectrometry (LC–MS); parameters: dose 5 uM, timepoint 0, 1.5, 3, 6, 9, 12 hours; conditions: 5 µM
[22] = The drug is tested on Bifidobacterium longum strain: DSM20088 for biotransformation under anaerobic condition. The drug concentrations were measured over 6 timepoints collected between 0 and 12 hours of incubation by liquid-chromatography-coupled mass spectrometry (LC–MS); parameters: dose 5 uM, timepoint 0, 1.5, 3, 6, 9, 12 hours; conditions: 5 µM
[23] = The drug is tested on Actinomyces naeslundi strain: DSM43013 for biotransformation under microaerobic condition. The drug concentrations were measured over 6 timepoints collected between 0 and 12 hours of incubation by liquid-chromatography-coupled mass spectrometry (LC–MS); parameters: dose 5 uM, timepoint 0, 1.5, 3, 6, 9, 12 hours; conditions: actinomyces naeslundii, 5 µM
[24] = The drug is tested on the gut metagenome community of A-05 with ENA study accession number: PRJEB31790 for biotransformation under microaerobic condition. The drug concentrations were measured over 7 timepoints collected between 0 and 12 hours of incubation by liquid-chromatography-coupled mass spectrometry (LC–MS); parameters: dose 5 uM, timepoint 0, 0.75, 1.5, 3, 6, 9, 12 hours; conditions: 5 µM
[25] = The drug is tested on Gemella morbillorum strain: DSM20572 for biotransformation under microaerobic condition. The drug concentrations were measured over 6 timepoints collected between 0 and 12 hours of incubation by liquid-chromatography-coupled mass spectrometry (LC–MS); parameters: dose 5 uM, timepoint 0, 1.5, 3, 6, 9, 12 hours; conditions: 5 µM
[26] = The drug is tested on Streptococcus salivarius strain: DSM20560 for biotransformation under anaerobic condition. The drug concentrations were measured over 6 timepoints collected between 0 and 12 hours of incubation by liquid-chromatography-coupled mass spectrometry (LC–MS); parameters: dose 5 uM, timepoint 0, 1.5, 3, 6, 9, 12 hours; conditions: 5 µM

Compound | Bacterial Biotransformation [1] | Bacterial Biotransformation [2] | Bacterial Biotransformation [3] | Bacterial Biotransformation [4] | Bacterial Biotransformation [5] | Bacterial Biotransformation [6] | Bacterial Biotransformation [7] | Bacterial Biotransformation [8] | Bacterial Biotransformation [9] | Bacterial Biotransformation [10] | Bacterial Biotransformation [11] | Bacterial Biotransformation [12] | Bacterial Biotransformation [13] | Bacterial Biotransformation [16] | Bacterial Biotransformation [18] | Bacterial Biotransformation [19] | Bacterial Biotransformation [20] | Bacterial Biotransformation [21] | Bacterial Biotransformation [22] | Bacterial Biotransformation [23] | further results
CCOc1nc2cccc(C(=O)O)c2n1Cc1ccc(-c2ccccc2-c2nnn[nH]2)cc1 | Compound NOT metabolized | Compound NOT metabolized | Compound NOT metabolized | Compound NOT metabolized | Compound NOT metabolized | Compound NOT metabolized | Compound NOT metabolized | Compound NOT metabolized | Compound NOT metabolized | Compound NOT metabolized | Compound NOT metabolized | Compound NOT metabolized | Compound NOT metabolized | Compound NOT metabolized | Compound NOT metabolized | Compound NOT metabolized | Compound NOT metabolized | Compound NOT metabolized | Compound NOT metabolized | Compound NOT metabolized | Bacterial Biotransformation [14]: Compound NOT metabolized; Bacterial Biotransformation [15]: Compound NOT metabolized; Bacterial Biotransformation [17]: Compound NOT metabolized; Bacterial Biotransformation [24]: Compound NOT metabolized; Bacterial Biotransformation [25]: Compound NOT metabolized; Bacterial Biotransformation [26]: Compound NOT metabolized
C[C@@H](NCCCc1cccc(C(F)(F)F)c1)c1cccc2ccccc12 | Compound NOT metabolized | Compound NOT metabolized | Compound NOT metabolized | Compound NOT metabolized | Compound NOT metabolized | Compound NOT metabolized | Compound NOT metabolized | Compound NOT metabolized | Compound NOT metabolized | Compound NOT metabolized | Compound NOT metabolized | Compound NOT metabolized | Compound NOT metabolized | Compound NOT metabolized | Compound NOT metabolized | Compound NOT metabolized | Compound NOT metabolized | Compound NOT metabolized | Compound NOT metabolized | Compound NOT metabolized | Bacterial Biotransformation [14]: Compound NOT metabolized; Bacterial Biotransformation [15]: Compound NOT metabolized; Bacterial Biotransformation [17]: Compound NOT metabolized; Bacterial Biotransformation [24]: Compound NOT metabolized; Bacterial Biotransformation [25]: Compound NOT metabolized; Bacterial Biotransformation [26]: Compound NOT metabolized
CCOC(=O)C1=C(COCCN)NC(C)=C(C(=O)OC)C1c1ccccc1Cl (stereo not given) [AMLODIPINE] | Compound metabolized | Compound NOT metabolized | Compound NOT metabolized | Compound NOT metabolized | Compound NOT metabolized | Compound NOT metabolized | Compound NOT metabolized | Compound NOT metabolized | Compound NOT metabolized | Compound NOT metabolized | Compound NOT metabolized | Compound NOT metabolized | Compound NOT metabolized | Compound metabolized | Compound NOT metabolized | Compound NOT metabolized | Compound NOT metabolized | Compound NOT metabolized | Compound NOT metabolized | Compound NOT metabolized | Bacterial Biotransformation [24]: Compound NOT metabolized; Bacterial Biotransformation [25]: Compound NOT metabolized; Bacterial Biotransformation [26]: Compound NOT metabolized
